Measured values published in patent US20100168084A1, “Therapeutic compounds and related methods of use” (priority 2008, published 2010).
Read-outs that look alike come from different tables or passages of the source.

Target: T1, sirtuin protein (Homo sapiens, UniProt Q96EB6)
T1 sequence (Q96EB6 2-747 limits assumed): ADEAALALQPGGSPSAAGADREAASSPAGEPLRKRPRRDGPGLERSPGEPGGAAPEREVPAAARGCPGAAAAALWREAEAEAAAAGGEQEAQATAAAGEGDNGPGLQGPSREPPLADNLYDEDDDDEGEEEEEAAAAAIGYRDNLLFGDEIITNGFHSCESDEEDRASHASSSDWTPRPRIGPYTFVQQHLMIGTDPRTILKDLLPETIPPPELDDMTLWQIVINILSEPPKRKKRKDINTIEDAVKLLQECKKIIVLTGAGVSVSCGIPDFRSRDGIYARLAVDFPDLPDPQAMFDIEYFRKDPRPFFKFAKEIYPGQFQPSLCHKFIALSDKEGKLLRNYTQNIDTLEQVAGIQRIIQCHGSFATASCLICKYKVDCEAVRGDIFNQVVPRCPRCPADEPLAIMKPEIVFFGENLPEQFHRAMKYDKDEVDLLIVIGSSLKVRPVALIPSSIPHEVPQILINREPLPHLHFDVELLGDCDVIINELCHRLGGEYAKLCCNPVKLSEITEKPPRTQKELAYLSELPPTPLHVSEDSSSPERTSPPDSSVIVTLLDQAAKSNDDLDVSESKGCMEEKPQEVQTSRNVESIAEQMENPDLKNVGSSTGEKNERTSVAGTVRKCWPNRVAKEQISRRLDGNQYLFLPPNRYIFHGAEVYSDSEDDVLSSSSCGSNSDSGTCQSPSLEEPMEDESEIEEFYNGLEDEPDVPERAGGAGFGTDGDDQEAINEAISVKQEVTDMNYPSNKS
Assay: MS assay (IC50 MS ASSAY / ED50 MS / FOLD ACTIVATION MS)
Assay type: biochemical
Set-up: scale not given here

[1] = Table 4, class symbols A′, A, B, D, NA, legend not given
[2] = class symbols (A′, A, B, D, NA), no legend given

Compound | ED50 MS ASSAY | ED50 MS ASSAY (Table 4) | ED50 MS ASSAY (Table 4, class symbols) | ED50 MS ASSAY [1] | ED50 MS ASSAY [2]
CN(C)c1ccc(C(=O)Nc2ccc(-c3nc4cnccc4s3)s2)cc1 [Compound 519] | A′ | A′ | A′ | A′ | A′
COc1cc(C(=O)Nc2ccc(-c3nc4cnccc4s3)s2)cc(OC)c1OC [Compound 520] | A′ | A′ | A′ | A′ | A′
COc1cc(OC)cc(C(=O)Nc2ccccc2-c2nc3cccnc3[nH]2)c1 [Compound 521] | A′ | A′ | A′ | A′ | A′
CN(C)c1cccc(C(=O)Nc2ccccc2-c2nc3cccnc3[nH]2)c1 [Compound 524] | A′ | A′ | A′ | A′ | A′
O=C(Nc1ccccc1-c1nc2cccnc2[nH]1)c1cccc(OC(F)(F)F)c1 [Compound 529] | A′ | A′ | A′ | A′ | A′
COc1cccc(C(=O)Nc2ccccc2-c2nc3cccnc3[nH]2)c1C [Compound 530] | A′ | A′ | A′ | A′ | A′
O=C(Nc1ccccc1-c1nc2cccnc2[nH]1)c1ccccc1 [Compound 533] | A′ | A′ | A′ | A′ | A′
CN(C)c1ccc(C(=O)Nc2ccccc2-c2nc3cccnc3[nH]2)cc1 [Compound 534] | A′ | A′ | A′ | A′ | A′
O=C(Nc1ccccc1-c1cn2c(CN3CCNCC3)csc2n1)c1cnccn1 [Compound 543] | A′ | A′ | A′ | A′ | A′
O=C(Nc1ccccc1-c1cn2c(n1)CCCC2)c1ccc2ccccc2n1 [Compound 547] | A′ | A′ | A′ | A′ | A′
O=C(Nc1ccccc1-c1cn2c(n1)CCCC2)c1cnc2ccccc2n1 [Compound 548] | A′ | A′ | A′ | A′ | A′
COc1ccc(C(=O)Nc2ccc(-c3nc4ccncc4o3)s2)c(OC)c1 [Compound 561] | A′ | A′ | A′ | A′ | A′
COc1cc(OC)cc(C(=O)Nc2ccc(-c3nc4ccncc4o3)s2)c1 [Compound 562] | A′ | A′ | A′ | A′ | A′
COc1cc(OC)cc(C(=O)Nc2ccccc2-c2nc3cc(CN4CCNCC4)cnc3s2)c1 [Compound 589] | A′ | A′ | A′ | A′ | A′
Cc1ccc(C(=O)Nc2ccccc2-c2nc3cc(CN4CCNCC4)cnc3s2)cc1C [Compound 591] | A′ | A′ | A′ | A′ | A′
N#Cc1cccc(C(=O)Nc2ccccc2-c2nc3cc(CN4CCNCC4)cnc3s2)c1 [Compound 592] | A′ | A′ | A′ | A′ | A′
CN(C)c1cccc(C(=O)Nc2ccccc2-c2nc3cc(CN4CCNCC4)cnc3s2)c1 [Compound 593] | A′ | A′ | A′ | A′ | A′
O=C(Nc1ccccc1-c1cn2c(CN3CCOCC3)csc2n1)c1cnc2ccccc2n1 [Compound 617] | A′ | A′ | A′ | A′ | A′
O=C(Nc1ccccc1-c1cn2c(CN3CCCCC3)csc2n1)c1cnc2ccccc2n1 [Compound 618] | A′ | A′ | A′ | A′ | A′
COc1cc(C(=O)Nc2ccccc2-c2cn3c(CN4CCCC4)csc3n2)cc(OC)c1OC [Compound 620] | A′ | A′ | A′ | A′ | A′
O=C(Nc1ncccc1-c1cn2c(CN3CCOCC3)csc2n1)c1cnc2ccccc2n1 [Compound 621] | A′ | A′ | A′ | A′ | A′
O=C(Nc1ccccc1-c1nc2cc(CN3CCNCC3)cnc2s1)c1cnc2ccccc2n1 [Compound 622] | A′ | A′ | A′ | A′ | A′
O=C(Nc1ccccc1-c1cn2c(CN3CCNCC3)csc2n1)c1cc2ccccc2o1 [Compound 624] | A′ | A′ | A′ | A′ | A′
O=C(Nc1ccccc1-c1cn2c(CN3CCNCC3)csc2n1)c1cc(-c2ccccc2)ncn1 [Compound 625] | A′ | A′ | A′ | A′ | A′

Second part, the compound after the results:

ED50 MS ASSAY | ED50 MS ASSAY (Table 4) | ED50 MS ASSAY (Table 4, class symbols) | ED50 MS ASSAY [1] | ED50 MS ASSAY [2] | Compound
A′ | A′ | A′ | A′ | A′ | COc1ccc(C(=O)Nc2ccccc2-c2nc3cccnc3[nH]2)cc1OC [Compound 525]
A′ | A′ | A′ | A′ | A′ | O=C(Nc1ccccc1-c1nc2cccnc2[nH]1)c1ccc(N2CCOCC2)cc1 [Compound 526]
A′ | A′ | A′ | A′ | A′ | O=C(Nc1ccccc1-c1nc2cccnc2[nH]1)c1ccc(N2CCCCC2)cc1 [Compound 527]
A′ | A′ | A′ | A′ | A′ | COc1ccc(C(=O)Nc2ccccc2-c2nc3cccnc3[nH]2)cc1C(F)(F)F [Compound 528]
A′ | A′ | A′ | A′ | A′ | COc1ccc(C(=O)Nc2ccccc2-c2nc3cccnc3[nH]2)cc1 [Compound 531]
A′ | A′ | A′ | A′ | A′ | COc1cccc(C(=O)Nc2ccccc2-c2nc3cccnc3[nH]2)c1 [Compound 532]
A′ | A′ | A′ | A′ | A′ | COc1cc(C(=O)Nc2ccccc2-c2nc3cccnc3[nH]2)ccc1CN1CCOCC1 [Compound 537]
A′ | A′ | A′ | A′ | A′ | COc1cc(C(=O)Nc2ccccc2-c2nc3cccnc3[nH]2)ccc1CN1CCN(C)CC1 [Compound 539]
A′ | A′ | A′ | A′ | A′ | O=C(Nc1ccccc1-c1nc2ccccc2[nH]1)c1ccc2ccccc2n1 [Compound 556]
A′ | A′ | A′ | A′ | A′ | COc1cc(C(=O)Nc2ccccc2-c2nc3ccccc3[nH]2)ccc1CN1CCNCC1 [Compound 558]
A′ | A′ | A′ | A′ | A′ | COc1cc(C(=O)Nc2ccccc2-c2nc3ccccc3[nH]2)ccc1CN1CCCC1 [Compound 587]
A′ | A′ | A′ | A′ | A′ | O=C(Nc1ccccc1-c1cn2c(CN3CCCC3)csc2n1)c1cnc2ccccc2n1 [Compound 619]
